In patent US10456467B2, “Nanoparticle delivery system for targeted anti-obesity treatment” (UNIVERSITY OF WYOMING, priority 2014, dated 2019):

Columns and labels:
[1] = cited from earlier work
[2] = target: T1, TRPV1 channel protein (CAP receptor) (Homo sapiens, UniProt Q8NER1); test: Fura-2 Ca2+ influx imaging in HEK293 cells expressing TRPV1; format: cell-based; conditions: 1 μM CAP or equivalent, 22 degrees Celsius, FIG. 4
T1 construct: expressed in transfected cells; host or cells: HEK293
Procedure: FIG. 4 is a graph 400 of the time to peak rise of Ca^2+ for PLGA coated CMN, pure CAP and MNPs containing no CAP, according to embodiments described herein. HEK293 cells expressing TRPV1 channel protein (CAP receptor) grown on coverslips were loaded with Fura-2 AM (2 μM) for 40 minutes at room temperature. Cells were washed and then viewed with a Leica DMI3000 B inverted microscope coupled to a Polychrome V digital imaging system with Imago CCD camera. Cells were continuously superfused (22 degrees Celsius) with 2 mM Ca^2+ containing normal extracellular solution (NES). The Ca^2+ influx due to the addition of pure capsaicin (1 μM), CMN or PCMN (equivalent of 1 μM CAP), was observed and measured as a function of fluorescence.

[3] = CAP release (dissolution) in pH 7.4 phosphate buffer, Vankel dissolution apparatus; format: physicochemical; conditions: 37° C.
Description: The cumulative release (%) was plotted against time. Cumulative % Release=C1V1×CF/100×C2
C1=Concentration of capsaicin in the final solution (g/ml);
C2=Drug content (mgs) used for dissolution study;
CF=Correction Factor, which is an accommodation for the change in volume due to sampling; and
V1=Volume of dissolution medium (ml)

T1 sequence (Q8NER1 whole entry): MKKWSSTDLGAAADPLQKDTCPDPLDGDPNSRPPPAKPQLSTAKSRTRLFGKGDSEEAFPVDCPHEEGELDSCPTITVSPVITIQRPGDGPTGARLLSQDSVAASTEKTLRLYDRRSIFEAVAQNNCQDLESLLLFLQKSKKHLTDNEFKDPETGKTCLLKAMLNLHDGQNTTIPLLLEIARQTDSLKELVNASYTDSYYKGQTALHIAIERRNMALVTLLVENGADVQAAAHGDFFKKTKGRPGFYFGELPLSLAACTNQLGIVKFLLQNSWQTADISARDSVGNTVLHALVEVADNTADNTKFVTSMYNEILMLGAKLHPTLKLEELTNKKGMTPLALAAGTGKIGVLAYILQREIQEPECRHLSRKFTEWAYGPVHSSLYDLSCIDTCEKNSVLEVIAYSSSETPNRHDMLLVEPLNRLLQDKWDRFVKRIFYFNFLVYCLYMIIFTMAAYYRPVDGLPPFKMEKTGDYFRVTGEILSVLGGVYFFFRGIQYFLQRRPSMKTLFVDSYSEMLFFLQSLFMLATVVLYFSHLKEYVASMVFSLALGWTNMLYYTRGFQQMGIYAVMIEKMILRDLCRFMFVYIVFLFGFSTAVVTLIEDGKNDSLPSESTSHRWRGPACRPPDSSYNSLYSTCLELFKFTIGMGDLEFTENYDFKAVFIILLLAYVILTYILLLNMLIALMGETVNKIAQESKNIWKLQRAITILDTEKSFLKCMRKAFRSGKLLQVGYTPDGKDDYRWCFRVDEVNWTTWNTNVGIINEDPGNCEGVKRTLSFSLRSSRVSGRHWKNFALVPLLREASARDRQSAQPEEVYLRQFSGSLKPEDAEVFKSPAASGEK

For COc1cc(CNC(=O)CCCC/C=C/C(C)C)ccc1O [pure CAP, capsaicin], the “effect on high fat diet-induced weight gain in the absence of the TRPV1 protein in adipose tissue” value ([1]; absence of TRPV1 protein in adipose tissue) is given as “does not inhibit high fat diet-induced weight gain”, the “effect on high fat diet-induced weight gain” value ([1]; mouse model systems) is given as “inhibit high fat diet-induced weight gain” and the “time at which rise in Ca2+ concentration begins” value [2] is given as “approximately 175 seconds”. For the same compound, the “time of peak rise in Ca2+ concentration” value [2] was “about 300 seconds”, the “time of peak CAP concentration (cumulative release)” value ([3]; FIG. 3, 15 to 3000 minutes) was “around 500 minutes” and the “course of CAP concentration after the peak” value ([3]; FIG. 3, up to 3000 minutes) was “steadily decrease”.
